From patent US20230203485A1, “METHODS FOR MODULATING MHC-I EXPRESSION AND IMMUNOTHERAPY USES THEREOF” (Dana-Farber Cancer Institute, Inc., priority 2020, published 2023)

Tested on: class I bound peptides
Experiment: HLA-I immunoprecipitation and LC-MS/MS immunopeptidome of cell lines +/- IFN-γ
Assay type: cell-based, human
Description: Up to 40 million or 0.2 g of MCC cells were immunoprecipitated. Briefly, MCC cells were harvested and lysed in ice-cold lysis buffer containing […] (pH 8.0), 1 mM EDTA (pH 8.0), 0.1M sodium chloride, Triton X-100, 0.06M octyl β-d-glucopyranoside, 100 U/mL DNAse I, 1 mM phenylmethanesulfonyl fluoride (all from Sigma Aldrich), and protease inhibitor cocktail (Roche Diagnostics). Cell lysate was centrifuged at 12,700 rpm at 4° C. for 22 min. Lysate supernatant was coupled with Gammabind Plus sepharose beads (GE Healthcare) and incubated with 10 μg of HLA-I antibody (Clone W6/32, Santa Cruz Biotechnologies) at 4° C. under rotary agitation for 3 h. After incubation, the lysate-bead-antibody mixture was briefly centrifuged and the supernatant was discarded. Beads were washed with lysis buffer, consisting of wash buffer containing 40 mM Tris (pH 8.0), 1 mM EDTA (pH 8.0), 0.1M sodium chloride, 0.06M octyl β-d-glucopyranoside, and 20 mM Tris buffer, without protease inhibitors. […] Peptides of up to three immunoprecipitations were combined, acid eluted, and analyzed using LC/MS-MS. […] Peptides were eluted in a 6-30% gradient (EasyLC 1000 or 1200, Thermo Fisher Scientific) and analyzed on a QExactive Plus, Fusion Lumos, or Orbitrap Exploris 480 (Thermo Fisher Scientific). […] Fractions were analyzed on a Fusion Lumos or Orbitrap Exploris 480 equipped with a FAIMSpro interface. […]

“IFN-γ: interferon gamma used to stimulate MCC cell lines” was tested, and the “median fold increase in the abundance of class I bound peptides” value (across 7 cell lines, following IFN-γ stimulation) was 12 fold and the “frequencies of peptides mapping to each HLA allele” value (cell lines with vs without IFN-γ treatment) was “increase in HLA-B-presented peptides”.
